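Each compound was tested at five concentrations against cells in 96-well plates for 48 hours. Here, GI50 denotes the concentration required for 50% inhibition of growth.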 Calls of active or inactive are those of the source. Rule as the data show it: active = GI50 up to about 1.1 µM and inactive = higher.
Assays:
Test in all cases: DTP human tumour cell line panel, 48 h
[1] = test system: OVCAR-3
[2] = test system: LOX IMVI
[3] = test system: NCI-H226
[4] = test system: COLO 205
[5] = test system: NCI-H23
[6] = test system: HOP-62
[7] = test system: UACC-62
[8] = test system: SF-268
[9] = test system: BT-549
[10] = test system: SF-539
[11] = test system: HT-29
[12] = test system: CAKI-1
[13] = test system: EKVX
[14] = test system: SNB-19
[15] = test system: CCRF-CEM
[16] = test system: MOLT-4
[17] = test system: OVCAR-8
[18] = test system: MCF7
[19] = test system: U-251
[20] = test system: M14

| SMILES | GI50 [1] | GI50 [2] | GI50 [3] | GI50 [4] | GI50 [5] | GI50 [6] | GI50 [7] | GI50 [8] | GI50 [9] | GI50 [10] | GI50 [11] | GI50 [12] | GI50 [13] | GI50 [14] | GI50 [15] | GI50 [16] | GI50 [17] | GI50 [18] | GI50 [19] | GI50 [20] |
| --- | --- | --- | --- | --- | --- | --- | --- | --- | --- | --- | --- | --- | --- | --- | --- | --- | --- | --- | --- | --- |
| CC(C)(C)CC(C)(C)c1ccc(O)c(C[N+](C)(C)[O-])c1 | 58.5 µM (inactive) | > 100 µM (inactive) | > 100 µM (inactive) | 60.3 µM (inactive) | > 100 µM (inactive) | > 100 µM (inactive) | > 100 µM (inactive) | 85.5 µM (inactive) | > 100 µM (inactive) | > 100 µM (inactive) | 73.6 µM (inactive) | > 100 µM (inactive) | > 100 µM (inactive) | > 100 µM (inactive) | 41.8 µM (inactive) | 53.6 µM (inactive) | > 100 µM (inactive) | 80 µM (inactive) | > 100 µM (inactive) | > 100 µM (inactive) |
| O=C1CSC2(CC(/C=C/c3cccc(Br)c3)=NN2c2cccc(S(=O)(=O)O)c2)N1c1nc2ccccc2s1 (stereo not given) | > 100 µM (inactive) | > 82.6 µM (inactive) | > 100 µM (inactive) | > 100 µM (inactive) | > 100 µM (inactive) | > 100 µM (inactive) | 80.2 µM (inactive) | > 100 µM (inactive) | > 100 µM (inactive) | > 100 µM (inactive) | > 100 µM (inactive) | > 100 µM (inactive) | > 100 µM (inactive) | > 100 µM (inactive) | 20 µM (inactive) | > 100 µM (inactive) | > 79.8 µM (inactive) | 65.6 µM (inactive) | > 100 µM (inactive) | > 100 µM (inactive) |
| Cc1csc(NC23CC4CC(CC(C4)C2)C3)[n+]1C(P(=O)([O-])O)P(=O)(O)O (stereo not given) | > 100 µM (inactive) | > 100 µM (inactive) | > 100 µM (inactive) | > 100 µM (inactive) | > 100 µM (inactive) | > 100 µM (inactive) | > 100 µM (inactive) | > 100 µM (inactive) | > 100 µM (inactive) | > 100 µM (inactive) | > 100 µM (inactive) | > 100 µM (inactive) | > 100 µM (inactive) | > 100 µM (inactive) | > 100 µM (inactive) | > 100 µM (inactive) | > 100 µM (inactive) | > 100 µM (inactive) | > 100 µM (inactive) | > 100 µM (inactive) |
| CC(C)[Si](OC/C(=C/COC(C)(C)C)[C@H]1CC=C(C(=O)c2ccccc2N2CN(C)C(=O)N(C)C2)C1)(C(C)C)C(C)C | 9.93 µM (inactive) | 2.07 µM (inactive) | 14.6 µM (inactive) | 15.7 µM (inactive) | 15.2 µM (inactive) | 16 µM (inactive) | 10.8 µM (inactive) | 6.58 µM (inactive) | 13.4 µM (inactive) | 6.78 µM (inactive) | 5.75 µM (inactive) | 4.29 µM (inactive) | 15.9 µM (inactive) | 12.1 µM (inactive) | 3.1 µM (inactive) | 0.366 µM (active) | 5.55 µM (inactive) | 4.47 µM (inactive) | 10.1 µM (inactive) | 12.2 µM (inactive) |
| CC[C@]1(Cc2ccc(OC)c(OC)c2)[C@@H]2C[C@@H](C3OCCO3)ON2O[C@H](OC2CCCC2(c2ccccc2)c2ccccc2)[C@@H]1OC(C)=O (stereo not given in full) | 12.7 µM (inactive) | 23.3 µM (inactive) | 20.6 µM (inactive) | 26.9 µM (inactive) | 21 µM (inactive) | 19.6 µM (inactive) | 37.4 µM (inactive) | 19.9 µM (inactive) | 25.6 µM (inactive) | 40.4 µM (inactive) | 23.5 µM (inactive) | 32.8 µM (inactive) | 21.1 µM (inactive) | 18.1 µM (inactive) | 18.7 µM (inactive) | 10.1 µM (inactive) | 24.9 µM (inactive) | 22.5 µM (inactive) | 33.2 µM (inactive) | 16.2 µM (inactive) |
| Nc1ccc(Nc2c3ccccc3nc3ccccc23)cc1 | 3.89 µM (inactive) | 1.06 µM (active) | 1.38 µM (inactive) | 3.78 µM (inactive) | 3.25 µM (inactive) | 4.32 µM (inactive) | 1.77 µM (inactive) | > 10 µM (inactive) | > 10 µM (inactive) | 3.7 µM (inactive) | 3.49 µM (inactive) | 2.91 µM (inactive) | 8.51 µM (inactive) | 4.99 µM (inactive) | 2.09 µM (inactive) | 0.568 µM (active) | 3.31 µM (inactive) | 2.2 µM (inactive) | 4.4 µM (inactive) | 6.95 µM (inactive) |
| C/C(=N\Nc1nc2cc(Cl)ccc2s1)c1ccccn1 | 0.0946 µM (active) | 0.459 µM (active) | 0.32 µM (active) | 0.09 µM (active) | 0.403 µM (active) | 0.904 µM (active) | 0.673 µM (active) | 0.365 µM (active) | 4.9 µM (inactive) | 1.21 µM (inactive) | 0.0824 µM (active) | 0.0653 µM (active) | 0.129 µM (active) | 1.01 µM (active) | 0.373 µM (active) | 0.0346 µM (active) | 0.177 µM (active) | 0.0867 µM (active) | 0.877 µM (active) | 0.443 µM (active) |
| COC(=O)/C=C(\S/C(=C(/c1ccc(OC)cc1)n1cc(C(=O)OC)c(C(=O)OC)n1)c1ccc(OC)cc1)C(=O)OC | 3.42 µM (inactive) | 9.35 µM (inactive) | 48.6 µM (inactive) | 3.01 µM (inactive) | 37.2 µM (inactive) | 44.9 µM (inactive) | 34.9 µM (inactive) | 17.1 µM (inactive) | 65.3 µM (inactive) | 21.6 µM (inactive) | 8.04 µM (inactive) | 2.58 µM (inactive) | 21.6 µM (inactive) | 51.8 µM (inactive) | 0.399 µM (active) | 2.78 µM (inactive) | 2.11 µM (inactive) | 5.62 µM (inactive) | 33.6 µM (inactive) | 21.6 µM (inactive) |
| Cc1cc(NS(=O)(=O)c2ccc(NC(=O)c3ccc4nc5ccccc5c(Nc5ccc(S(=O)(=O)Nc6cc(C)on6)cc5)c4c3)cc2)no1 | > 50 µM (inactive) | > 50 µM (inactive) | > 50 µM (inactive) | > 50 µM (inactive) | > 50 µM (inactive) | > 50 µM (inactive) | > 50 µM (inactive) | > 50 µM (inactive) | > 50 µM (inactive) | > 50 µM (inactive) | > 50 µM (inactive) | > 50 µM (inactive) | > 50 µM (inactive) | > 50 µM (inactive) | > 50 µM (inactive) | > 50 µM (inactive) | > 50 µM (inactive) | > 50 µM (inactive) | > 50 µM (inactive) | > 50 µM (inactive) |
| CC(C)c1c(O)c(O)c2c(c1O)C(=O)C(O)=C1C(C)(C)CCC[C@@]12C | 3.13 µM (inactive) | 4.32 µM (inactive) | 3.01 µM (inactive) | 1.97 µM (inactive) | 2.92 µM (inactive) | 8.61 µM (inactive) | 3.86 µM (inactive) | 4.76 µM (inactive) | 3.29 µM (inactive) | 3.59 µM (inactive) | 2.94 µM (inactive) | 2.61 µM (inactive) | 2.9 µM (inactive) | 4.76 µM (inactive) | 3.48 µM (inactive) | 2.96 µM (inactive) | 2.71 µM (inactive) | 3.13 µM (inactive) | 2.77 µM (inactive) | 5.47 µM (inactive) |
| CCCCSc1nsc(N(C(=O)c2ccccc2)C(=O)c2ccccc2)n1 | 23.7 µM (inactive) | 26.9 µM (inactive) | 29.7 µM (inactive) | 20.4 µM (inactive) | 30.1 µM (inactive) | 34 µM (inactive) | 23.4 µM (inactive) | 35.8 µM (inactive) | 29.1 µM (inactive) | 25.1 µM (inactive) | 29.8 µM (inactive) | 36.5 µM (inactive) | 27.5 µM (inactive) | 45.5 µM (inactive) | 35.8 µM (inactive) | 24.2 µM (inactive) | 34.8 µM (inactive) | 32.2 µM (inactive) | 32.4 µM (inactive) | 29 µM (inactive) |
| CN(C)CCNC(=O)c1cc([N+](=O)[O-])cn1C | > 100 µM (inactive) | > 100 µM (inactive) | > 100 µM (inactive) | > 100 µM (inactive) | > 100 µM (inactive) | > 100 µM (inactive) | > 100 µM (inactive) | > 100 µM (inactive) | > 100 µM (inactive) | > 100 µM (inactive) | > 100 µM (inactive) | > 100 µM (inactive) | > 100 µM (inactive) | > 100 µM (inactive) | > 100 µM (inactive) | > 100 µM (inactive) | > 100 µM (inactive) | > 100 µM (inactive) | > 100 µM (inactive) | > 100 µM (inactive) |
| O=C(O)COCC(=O)N(CCOCCN(Cc1ccccc1)C(=O)COCC(=O)O)Cc1ccccc1 | > 100 µM (inactive) | > 100 µM (inactive) | > 100 µM (inactive) | > 100 µM (inactive) | > 100 µM (inactive) | > 100 µM (inactive) | > 100 µM (inactive) | > 100 µM (inactive) | > 100 µM (inactive) | > 100 µM (inactive) | > 100 µM (inactive) | > 100 µM (inactive) | > 100 µM (inactive) | > 100 µM (inactive) | > 100 µM (inactive) | > 100 µM (inactive) | > 100 µM (inactive) | > 100 µM (inactive) | > 100 µM (inactive) | > 100 µM (inactive) |
